Results reported in ChEMBL document CHEMBL5543057, “Hydrophobic tag-based protein degradation: Development, opportunity and challenge” (Eur J Med Chem, 2023).

What was measured:
[1] = tested on: NCI/ADR-RES; test: Antiproliferative activity against human MCF7ADR cells assessed as reduction in cell growth measured after 48 hrs by MTT assay; format: functional, cell-based
[2] = target: Protein cereblon/Bromodomain-containing protein 4 (Homo sapiens, UniProt O60885+Q96SW2); test: PROTAC activity at CRBN/BRD4 in human MV4-11 cells assessed as induction of degradation of BRD4 measured after 24 hrs by Western blot analysis; format: cell-based
[3] = target: Serine/threonine-protein kinase PLK1 (Homo sapiens, UniProt P53350); test: Inhibition of PLK1 (unknown origin) (37 to 345 residues) expressed in Escherichia coli BL21 (DE3) incubated for 18 hrs by fluorescence polarization assay
[4] = tested on: HeLa; test: Antiproliferative activity against human HeLa cells assessed as reduction in cell viability incubated for 24 hrs by MTT assay; format: functional, cell-based
[5] = Clearance in Sprague-Dawley rat at 1 mg/kg, iv measured for 24 hrs by LC-MS/MS analysis; format: ADME, organism-based; settings: in vivo
[6] = Oral bioavailability in Sprague-Dawley rat at 1 mg/kg by LC/MS/MS analysis; format: ADME, organism-based; settings: in vivo
[7] = Half life in Sprague-Dawley rat at 50 mg/kg, ip measured for 24 hrs by LC-MS/MS analysis; format: ADME, organism-based; settings: in vivo
[8] = Half life in Sprague-Dawley rat at 1 mg/kg, iv measured for 24 hrs by LC-MS/MS analysis; format: ADME, organism-based; settings: in vivo
[9] = Clearance in Sprague-Dawley rat at 50 mg/kg, ip measured after 24 hrs by LC-MS/MS analysis; format: ADME, organism-based; settings: in vivo

Serine/threonine-protein kinase PLK1, sequence (P53350 whole entry, the tested form may be a part): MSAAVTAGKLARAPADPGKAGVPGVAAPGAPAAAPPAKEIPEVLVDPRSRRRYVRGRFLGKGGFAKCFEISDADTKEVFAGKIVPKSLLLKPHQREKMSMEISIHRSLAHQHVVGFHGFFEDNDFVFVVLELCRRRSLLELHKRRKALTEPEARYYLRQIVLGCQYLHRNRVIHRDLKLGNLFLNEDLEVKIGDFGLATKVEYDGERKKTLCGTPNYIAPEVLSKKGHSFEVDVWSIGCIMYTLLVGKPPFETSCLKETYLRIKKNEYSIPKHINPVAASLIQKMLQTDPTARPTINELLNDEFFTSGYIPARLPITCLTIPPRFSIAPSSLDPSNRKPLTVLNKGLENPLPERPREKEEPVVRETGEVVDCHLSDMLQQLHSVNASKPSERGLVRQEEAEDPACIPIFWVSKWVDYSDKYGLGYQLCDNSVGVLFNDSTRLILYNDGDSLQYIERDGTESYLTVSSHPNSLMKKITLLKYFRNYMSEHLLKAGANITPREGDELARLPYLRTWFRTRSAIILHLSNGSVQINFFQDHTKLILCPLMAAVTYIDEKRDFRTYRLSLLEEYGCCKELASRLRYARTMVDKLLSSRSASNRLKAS
Protein cereblon/Bromodomain-containing protein 4, sequence (Q96SW2 whole entry, looked up, other chains not shown, the tested form may be a part): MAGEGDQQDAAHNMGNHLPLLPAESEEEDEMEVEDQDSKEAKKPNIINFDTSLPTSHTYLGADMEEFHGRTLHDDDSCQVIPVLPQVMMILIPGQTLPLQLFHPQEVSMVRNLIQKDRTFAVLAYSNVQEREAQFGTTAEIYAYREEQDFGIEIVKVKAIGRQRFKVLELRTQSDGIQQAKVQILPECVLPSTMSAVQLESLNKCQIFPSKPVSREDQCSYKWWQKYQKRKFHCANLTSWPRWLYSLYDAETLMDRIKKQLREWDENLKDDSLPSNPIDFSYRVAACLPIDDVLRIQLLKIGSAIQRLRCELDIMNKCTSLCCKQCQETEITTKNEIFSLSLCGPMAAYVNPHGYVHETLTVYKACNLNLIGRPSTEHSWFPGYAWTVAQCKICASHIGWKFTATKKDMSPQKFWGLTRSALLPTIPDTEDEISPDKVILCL

CC1=CC(=O)[C@H]2/C(C=O)=C\C[C@H]3[C@@H]([C@@H](C)/C=C\C=C/C(=O)OCCCCCCCCOC(=O)CC45CC6CC(CC(C6)C4)C5)CC[C@]3(C)C[C@H]12
IC50 [1]: 1490 nM

CC1=CC(=O)[C@H]2/C(C=O)=C\C[C@H]3[C@@H]([C@@H](C)/C=C\C=C/C(=O)OCCOCCOCCOC(=O)CC45CC6CC(CC(C6)C4)C5)CC[C@]3(C)C[C@H]12
IC50 [1]: 480 nM

CC(C)C[C@H](NC(=O)CCOCCOCCOCCNC(=O)CNC1C2CC3CC(C2)CC1C3)C(=O)N[C@@H](CC(C)C)C(=O)N1CCC[C@H]1C(=O)N1CCC[C@H]1C(=O)N[C@H](C(=O)N[C@@H](CCC(=O)O)C(=O)N[C@@H](CCC(N)=O)C(=O)N[C@@H](CC(=O)O)C(=O)N[C@@H](CC(C)C)C(=O)N[C@@]1(C)CCC/C=C\CCC[C@@](C)(C(=O)N[C@@H](Cc2ccc(O)cc2)C(N)=O)NC(=O)[C@H](CC2CCCCC2)NC(=O)[C@H](CC(C)C)NC(=O)[C@H](CCCCN)NC1=O)[C@@H](C)O (stereo partly specified)
DC50 [2]: 5000 nM

CC1=CC(=O)[C@H]2/C(C=O)=C\C[C@H]3[C@@H]([C@@H](C)/C=C\C=C/C(=O)OCCOCCOCCOCCOC(=O)CC45CC6CC(CC(C6)C4)C5)CC[C@]3(C)C[C@H]12
IC50 [1]: 2030 nM

CC1=C/C(=N/OC(=O)c2ccccc2C)C(C)=CC1=O
IC50 [3]: 1400 nM
IC50 [4]: 10500 nM

CC1=CC(=O)[C@H]2/C(C=O)=C\C[C@H]3[C@@H]([C@@H](C)/C=C\C=C/C(=O)OCCCOC(=O)CC45CC6CC(CC(C6)C4)C5)CC[C@]3(C)C[C@H]12
IC50 [1]: 960 nM

CC(C)C[C@H](NC(=O)[C@H](C)NC(=O)[C@H](C)NC(=O)[C@H](C)NC(=O)[C@H](C)NC(=O)[C@H](CC(C)C)NC(=O)[C@@H](N)CCCNC(=N)N)C(=O)N[C@@H](CC(C)C)C(=O)N1CCC[C@H]1C(=O)N1CCC[C@H]1C(=O)N[C@H](C(=O)N[C@@H](CCC(=O)O)C(=O)N[C@@H](CCC(N)=O)C(=O)N[C@@H](CC(=O)O)C(=O)N[C@@H](CC(C)C)C(=O)N[C@@]1(C)CCC/C=C\CCC[C@@](C)(C(=O)N[C@@H](Cc2ccc(O)cc2)C(N)=O)NC(=O)[C@H](CC2CCCCC2)NC(=O)[C@H](CC(C)C)NC(=O)[C@H](CCCCN)NC1=O)[C@@H](C)O
DC50 [2]: 10000 nM

CC1=C/C(=N\OC(=O)c2ccc(CNC(=O)CCc3cn(CCCCCCOCCOCCNC(=O)CC4C5CC6CC(C5)CC4C6)nn3)cc2C)C(C)=CC1=O (stereo unspecified)
IC50 [3]: 10500 nM

CC1=CC(=O)[C@H]2/C(C=O)=C\C[C@H]3[C@@H]([C@@H](C)/C=C\C=C/C(=O)OCCOCCOC(=O)CC45CC6CC(CC(C6)C4)C5)CC[C@]3(C)C[C@H]12
IC50 [1]: 870 nM

CC1=C/C(=N\OC(=O)c2ccc(CNC(=O)CCc3cn(CCCCCCOCCOCCNC(=O)[C@H](C)CCC4C5CC6CC(C5)CC4C6)nn3)cc2C)C(C)=CC1=O (stereo partly specified)
IC50 [3]: 48200 nM

CCc1cc2c(cc1N1CCN(CCCCC(=O)NCC3CC4C=CC3C4)CC1)C(C)(C)c1[nH]c3cc(C#N)ccc3c1C2=O (stereo unspecified)
clearance [5]: 138 mL/min/kg
bioavailability [6]: 8.6%
half-life [7]: 31.7 min
half-life [8]: 25.2 min
CL/F [9]: 41.4 mL/min/kg
